Patent US20090062124A1, “Ethephon-induced enhancement of seedling development” (priority 2007, published 2009)
Where “and” joins values, the source holds several entries; their conditions need not be identical. Equal entries are not always repeated.

Assays:
Format in all cases: in vivo
Cotton plants = Cotton plants sprayed with ethephon at the cotyledon stage in greenhouse conditions
Description: (§1) Cotton plants were treated with ethephon in greenhouse conditions to evaluate the effects of ethephon application. All plants in the treatment groups received a single application by spraying of various concentrations of aqueous solutions of ethephon (0, 1.0, 3.8, 7.6, and 15.2 mM ethephon) to plants at the cotyledon stage. Lateral root production, leaf numbers and leaf size, and number of cotton squares were determined 7 to 80 days after spraying. To evaluate the effect on as a seed treatment, cotton seeds were soaked in aqueous ethephon solutions (10, 20, 30, and 50 mM) for 10 seconds prior to planting.

cotton seeds = test: Cotton seeds soaked in aqueous ethephon solutions prior to planting; conditions: seeds soaked 10 seconds; 10, 20, 30 and 50 mM tested
Description: as §1

[1] = system: dryland field grown cotton; test: Dryland field grown cotton sprayed with ethephon, seed cotton yield; conditions: 3.8 mM single spray at cotyledon, two leaf or four leaf stage; vs non-treated controls; FIG. 1
Description: The effects of ethephon treatment on dryland field grown cotton were measured. All plants in the treatment groups received a single application by spraying of 3.8 mM ethephon at either the cotyledon stage, two leaf stage, and four leaf stage. Cotton yields, measured as seed cotton weight, were measured at the end of the season following harvest.

[2] = system: Soybean seedlings (46G02 RR/STS, Kelly Green Seeds); test: Soybean seedlings sprayed with ethephon in greenhouse conditions
Description: Soybean seedlings (46G02 RR/STS, Kelly Green Seeds) at the cotyledon—second leaf stage were treated with ethephon in greenhouse conditions to evaluate the effects of ethephon application. All plants in the treatment groups received a single application by spraying of various concentrations of aqueous solutions of ethephon (0, 1.0, 3.8, 7.6, and 15.2 mM ethephon) to plants at the cotyledon stage. Root development, measured as tap root and lateral root lengths, and seedling growth were determined 7 days after spraying.

wheat seedlings = test: Wheat seedlings sprayed with ethephon in greenhouse conditions; conditions: between 1 mM and 7.6 mM ethephon, seven days after spraying, vs untreated controls
Description: (§2) The effects of ethephon treatment on the root development of corn and wheat was evaluated. Corn and wheat seedlings at the two to three leaf stage were treated with ethephon in greenhouse conditions. All plants in the treatment groups received a single application by spraying of various concentrations of aqueous solutions of ethephon (0, 1.0, 3.8, 7.6, 11.4, 15.2 and 30.4 mM ethephon for wheat, and 0, 3.8, 5.7, 7.6, 11.4, 15.2, 30.4, 45.6, and […] ethephon for corn) to plants at the cotyledon stage. Root development, measured as tap root and lateral root lengths for corn and tap root length for wheat, and shoot length and root hair production were also determined for wheat, seven days after spraying. To evaluate the effect on as a seed treatment, wheat and corn seeds were soaked in aqueous ethephon solutions (90 mM) for 10 seconds prior to planting.

Corn seedlings = Corn seedlings sprayed with ethephon in greenhouse conditions
Description: as §2

[3] = spray, 0, 1.0, 3.8, 7.6 and 15.2 mM tested
[4] = sprayed cotton, 7 to 80 days after spraying
[5] = 7 days after spraying, vs untreated controls
[6] = between 3.8 and 11.4 mM ethephon, seven days after spraying, vs untreated controls

O=P(O)(O)CCCl [Ethephon, (2-chloroethyl)phosphonic acid]
increase in fruiting sites (cotton squares) (Cotton plants; 3.8 mM ethephon vs control): 30%
Average # of squares (Cotton plants; 3.8 mM ethephon, single spray at cotyledon stage, greenhouse, average of 3 reps (control 42)): 55
Number of squares (Cotton plants; 3.8 mM ethephon, single spray at cotyledon stage, greenhouse, per rep): 58 and 54 and 53
ethephon concentration giving optimum results (Cotton plants; [3]): 3.8 mM
fruiting (number of cotton squares) (Cotton plants; [4]): increased fruiting
lateral root development (Cotton plants; [4]): statistically significant increases
leaf size (Cotton plants; [4]): without a decrease in leaf size
rate of leaf production (measured as numbers of leaves) (Cotton plants; [4]): statistically significant increases
optimum seed soak concentration (cotton seeds): 30 mM
cotton yields (seed cotton weight) [1]: significantly increased yields
seedling growth [2, 5]: statistically significant increases
taproot and lateral root development [2, 5]: statistically significant increases
ethephon concentration giving optimum results [2, 3]: 3.8 mM
shoot length (wheat seedlings): statistically significant increases
taproot length (wheat seedlings): statistically significant increases
lateral root length (Corn seedlings; [6]): statistically significant increases
taproot length (Corn seedlings; [6]): statistically significant increases
ethephon concentration giving optimum results (Corn seedlings; spray, FIG. 4): 7.6 mM
